Calls of active or inactive are those of the source. The rule behind the calls is not given here.
Key:
[1] = target: T1, Retinoic acid receptor RXR-alpha (Homo sapiens) (UniProt P19793); assay: Binding affinity to RXRalpha-LBD (unknown origin) assessed as fluorescence intensity by measuring maximum excitation wavelength from 382 to 440 nm at 5 to 20 uM in the presence of bexarotene by FRET assay; settings: dose 5-20 µM
T1 sequence (whole entry): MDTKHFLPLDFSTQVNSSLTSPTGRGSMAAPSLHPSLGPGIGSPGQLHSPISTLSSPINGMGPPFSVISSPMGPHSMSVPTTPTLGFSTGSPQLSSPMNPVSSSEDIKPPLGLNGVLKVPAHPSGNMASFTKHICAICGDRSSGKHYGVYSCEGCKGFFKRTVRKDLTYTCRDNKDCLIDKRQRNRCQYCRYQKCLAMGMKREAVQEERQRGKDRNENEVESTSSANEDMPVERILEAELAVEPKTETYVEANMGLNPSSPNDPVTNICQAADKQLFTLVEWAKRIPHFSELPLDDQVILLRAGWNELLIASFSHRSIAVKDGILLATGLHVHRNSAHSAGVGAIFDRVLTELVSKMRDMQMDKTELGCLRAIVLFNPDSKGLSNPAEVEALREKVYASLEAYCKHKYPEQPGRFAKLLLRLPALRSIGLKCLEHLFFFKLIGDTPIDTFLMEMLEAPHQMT

[2] = target: T1, Retinoic acid receptor RXR-alpha (Homo sapiens); assay: Binding affinity to RXRalpha-LBD (unknown origin) assessed as increase in fluorescence intensity by measuring maximum excitation of 440 nm wavelength at 16 uM by FRET assay; settings: filed as agonist
[3] = target: T1, Retinoic acid receptor RXR-alpha (Homo sapiens); assay: Binding affinity to RXR alpha-LBD (unknown origin) assessed as increase in fluorescence intensity up to 16 uM by FRET assay; settings: filed as agonist
[4] = target: T1, Retinoic acid receptor RXR-alpha (Homo sapiens); assay: Binding affinity to RXRalpha-LBD (unknown origin) assessed as increase in fluorescence intensity by measuring maximum excitation wavelength from 382 to 440 nm by FRET assay; settings: filed as agonist, dose <= 16.0 µM
[5] = target: T2, Retinoic acid receptor RXR-alpha (Homo sapiens, UniProt P19793); assay: Binding affinity to RXRalpha-LBP (unknown origin) assessed as dissociation constant by FRET assay
T2 sequence (P19793 whole entry): T1 sequence (whole entry)

[6] = target: T2, Retinoic acid receptor RXR-alpha; assay: Binding affinity to RXRalpha-LBD (unknown origin) assessed as dissociation constant by FRET assay

CCN(c1ccc2c(C(F)(F)F)cc(=O)n(CC(C)C)c2c1)c1ccc(C(=O)O)cn1
Activity [1]: inactive | Activity [2]: Active | Activity [3]: Active | Activity [4]: Dose-Dependent Effect | Kd [5]: 10.9 µM | Kd [6]: 6.3 µM

Source: ChEMBL document CHEMBL5390263, “Direct evaluation of polarity of the ligand binding pocket in retinoid X receptor using a fluorescent solvatochromic agonist” (Bioorg Med Chem Lett, 2023)
